Our source for the IC50 values is ChEMBL document CHEMBL1137125, “Rhodanine-3-acetic acid derivatives as inhibitors of fungal protein mannosyl transferase 1 (PMT1)” (Bioorg Med Chem Lett, 2004).

Structures are written as SMILES. A value given as a limit tells only on which side of the number the result lay.

In assay [1] the target is T1, Dolichyl-phosphate-mannose--protein mannosyltransferase 1 (Candida albicans (strain SC5314 / ATCC MYA-2876) (Yeast), UniProt O74189).
T1 sequence (O74189 whole entry): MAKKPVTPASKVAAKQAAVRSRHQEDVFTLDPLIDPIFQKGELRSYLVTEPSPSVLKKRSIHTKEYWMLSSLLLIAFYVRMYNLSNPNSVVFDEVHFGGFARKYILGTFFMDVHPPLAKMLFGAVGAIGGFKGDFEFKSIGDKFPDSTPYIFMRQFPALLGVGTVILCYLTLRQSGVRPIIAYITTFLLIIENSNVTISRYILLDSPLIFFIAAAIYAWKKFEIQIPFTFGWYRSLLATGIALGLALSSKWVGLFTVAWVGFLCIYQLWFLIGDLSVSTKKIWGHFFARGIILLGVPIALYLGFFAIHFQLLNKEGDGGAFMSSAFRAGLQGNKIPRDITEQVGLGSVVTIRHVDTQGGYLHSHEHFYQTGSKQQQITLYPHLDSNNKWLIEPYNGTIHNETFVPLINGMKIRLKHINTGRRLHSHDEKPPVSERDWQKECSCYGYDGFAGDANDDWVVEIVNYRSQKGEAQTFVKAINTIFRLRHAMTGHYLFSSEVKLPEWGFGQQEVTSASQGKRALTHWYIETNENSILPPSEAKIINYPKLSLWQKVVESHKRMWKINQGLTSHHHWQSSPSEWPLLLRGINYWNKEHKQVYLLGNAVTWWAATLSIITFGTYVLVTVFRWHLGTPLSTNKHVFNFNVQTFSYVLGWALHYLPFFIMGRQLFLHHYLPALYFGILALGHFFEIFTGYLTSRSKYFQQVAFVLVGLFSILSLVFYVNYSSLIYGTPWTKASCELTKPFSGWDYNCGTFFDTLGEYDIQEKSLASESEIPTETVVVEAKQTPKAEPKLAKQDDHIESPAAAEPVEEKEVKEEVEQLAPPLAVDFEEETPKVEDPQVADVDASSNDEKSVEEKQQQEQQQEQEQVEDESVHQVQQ
The assay is described as follows: In vitro inhibition of Candida albicans protein mannosyl transferase 1.

A further assay deals with Candida albicans. Put plainly: In vitro inhibition of Candida albicans G418-sensitive proliferation. Type of assay: functional, organism-based.

The term IC50 denotes the point on the concentration scale where inhibition reaches its midpoint. For `O=C(O)CN1C(=O)/C(=C/c2ccc(OCc3ccc(F)cc3F)c(OCc3ccc(F)cc3F)c2)SC1=S`, the IC50 was 5 µM in assay [1] and over 100 µM in the assay on Candida albicans.
Taken in the same sequence, the figures for `O=C(O)CN1C(=O)/C(=C/c2ccc(OCc3ccccc3)c(OCc3ccncc3)c2)SC1=S` were 30 µM and over 100 µM.
Regarding `C[C@H](COc1ccc(/C=C2\SC(=S)N(CC(=O)O)C2=O)cc1O[C@H](c1ccccc1)C(F)(F)F)c1ccccc1`, the concentration for half-maximal inhibition (IC50) in assay [1] was 0.6 µM; in the assay with Candida albicans, 0.02 µM.
As to `C[C@@H](COc1ccc(/C=C2\SC(=S)N(CC(=O)O)C2=O)cc1O[C@H](c1ccccc1)C(F)(F)F)c1ccccc1`, the IC50 turned out to be 0.4 µM in assay [1] and 0.01 µM in the assay with Candida albicans.
For the molecule `O=C(O)CN1C(=O)/C(=C/c2ccc(OCCc3ccc(C(F)(F)F)cc3)c(OCc3ccccc3)c2)SC1=S`, the IC50 worked out at 4 µM in assay [1] and 0.18 µM with Candida albicans.
For `Cc1ccc(COc2ccc(/C=C3\SC(=S)N(CC(=O)O)C3=O)cc2OCc2ccccc2)cc1` the same measures were 2.7 µM and 0.6 µM.
Taken in the same sequence, the figures for `O=C(O)CN1C(=O)/C(=C/c2ccc(OCc3ccccc3)c(OCc3ccc(C(F)(F)F)cc3)c2)SC1=S` were 11 µM and over 100 µM.
For `C[C@@H](COc1ccc(/C=C2\SC(=S)N(CC(=O)O)C2=O)cc1O[C@H](C)c1ccccc1)c1ccccc1` the same measures were 1.8 µM and 0.03 µM.
Regarding `C[C@H](COc1ccc(/C=C2\SC(=S)N(CC(=O)O)C2=O)cc1O[C@@H](c1ccccc1)C(F)(F)F)c1ccccc1`, the IC50 in assay [1] turned out to be 3.5 µM; in the assay on Candida albicans, 0.55 µM.
Taken in the same sequence, the figures for `O=C(O)CN1C(=O)/C(=C/c2ccc(OCc3ccccc3)c(OCc3cccc(C(F)(F)F)c3)c2)SC1=S` were 11 µM and over 100 µM.
As for `O=C(O)CN1C(=O)/C(=C/c2ccc(OCc3c(F)cccc3F)c(OCc3c(F)cccc3F)c2)SC1=S`, the values for the IC50 (in assay [1]; with Candida albicans) were 20 µM and over 100 µM, respectively.
Consider `O=C(O)CN1C(=O)/C(=C/c2cccc(OCc3ccccc3)c2)SC1=S`, for which the half-maximal inhibitory concentration (IC50) in assay [1] worked out at 50 µM.
As to `C[C@H](Oc1cc(/C=C2\SC(=S)N(CC(=O)O)C2=O)ccc1OC[C@H](C)c1ccccc1)c1ccccc1`, the figures for the IC50 (in assay [1]; with Candida albicans) were 0.5 µM and 0.002 µM, respectively.
As to `CC(Oc1cc(/C=C2\SC(=S)N(CC(=O)O)C2=O)ccc1OCCc1ccccc1)c1ccccc1` (centres undefined), the IC50 turned out to be 0.2 µM in assay [1] and 0.02 µM in the assay on Candida albicans.
For `O=C(O)CN1C(=O)/C(=C/c2ccc(OCc3ccccc3)cc2)SC1=S` the same measures were 55 µM and 50 µM.
`O=C(O)CN1C(=O)/C(=C/c2ccc(OCc3ccccc3)c(OCc3cccnc3)c2)SC1=S`: the IC50 in assay [1] is 43 µM; in the assay with Candida albicans, over 100 µM.
For `O=C(O)CN1C(=O)/C(=C/c2ccc(OCCc3ccccc3)c(OC(CO)c3ccccc3)c2)SC1=S` (centres undefined) the same measures were 0.17 µM and 0.3 µM.
For `O=C(O)CN1C(=O)/C(=C/c2ccc(OCc3ccc(F)c(F)c3)c(OCc3ccccc3)c2)SC1=S` the same measures were 2 µM and 1.5 µM.
As to `O=C(O)CN1C(=O)/C(=C/c2ccc(OCCc3ccccc3)c(OCc3ccccc3)c2)SC1=S`, the IC50 in assay [1] amounted to 1.5 µM; in the assay on Candida albicans, 0.5 µM.
On to `O=C(O)CN1C(=O)/C(=C/c2ccc(OCc3ccccc3)c(OCc3ccc(Cl)cc3)c2)SC1=S`, for which the IC50 in assay [1] stood at 7 µM.
With `O=C(O)CN1C(=O)/C(=C/c2ccc(OCc3ccc(F)cc3F)c(OCc3ccccc3)c2)SC1=S`, the half-maximal inhibitory concentration (IC50) in assay [1] came out at 6.5 µM; in the assay on Candida albicans, 2.1 µM.
`CCCN(CCC)C(=O)C(Oc1cc(/C=C2\SC(=S)N(CC(=O)O)C2=O)ccc1OCCc1ccccc1)c1ccccc1` (centres undefined): the half-inhibitory concentration (IC50) in assay [1] is 0.8 µM; in the assay with Candida albicans, 0.05 µM.
With `O=C(O)CN1C(=O)/C(=C/c2ccc(OCCCc3ccccc3)c(OCc3ccccc3)c2)SC1=S`, the IC50 in assay [1] turned out to be 1.4 µM; in the assay with Candida albicans, 2.4 µM.
Taken in the same sequence, the figures for `CS(=O)(=O)c1ccc(COc2ccc(/C=C3\SC(=S)N(CC(=O)O)C3=O)cc2OCc2ccccc2)cc1` were 3.2 µM and over 100 µM.
For `C[C@@H](COc1ccc(/C=C2\SC(=S)N(CC(=O)O)C2=O)cc1O[C@@H](c1ccccc1)C(F)(F)F)c1ccccc1` the same measures were 1.8 µM and 0.2 µM.
`O=C(O)CN1C(=O)/C(=C/c2ccc(OCCc3ccc(F)cc3F)c(OCc3ccccc3)c2)SC1=S`: the figures for the IC50 (in assay [1]; with Candida albicans) were 4 µM and 0.05 µM, respectively.
For `O=C(O)CN1C(=O)/C(=C/c2ccc(OCc3ccc(Cl)cc3)c(OCc3ccccc3)c2)SC1=S` the same measures were 0.95 µM and 0.6 µM.
In the case of `NC(=O)C(Oc1cc(/C=C2\SC(=S)N(CC(=O)O)C2=O)ccc1OCCc1ccccc1)c1ccccc1` (centres undefined), the values for the IC50 (in assay [1]; in the assay with Candida albicans) were 0.35 µM and 7 µM, respectively.
With `O=C(O)CN1C(=O)/C(=C/c2ccc(OCc3ccc(C(F)(F)F)cc3)c(OCc3ccccc3)c2)SC1=S`, the IC50 in assay [1] came out at 1.9 µM; with Candida albicans it was 4 µM.
In the case of `C[C@H](COc1ccc(/C=C2\SC(=S)N(CC(=O)O)C2=O)cc1OCc1ccccc1)c1ccccc1`, the results for the IC50 (in assay [1]; with Candida albicans) were 9.5 µM and 0.35 µM, respectively.
As for `C[C@@H](COc1ccc(/C=C2\SC(=S)N(CC(=O)O)C2=O)cc1OCc1ccccc1)c1ccccc1`, the concentration for half-maximal inhibition (IC50) is 1.8 µM in assay [1] and 0.07 µM with Candida albicans.
As for `O=C(O)CN1C(=O)/C(=C/c2ccc(OCc3ccccc3)c(OCc3ccc(F)cc3F)c2)SC1=S`, the IC50 in assay [1] was 8.5 µM; with Candida albicans, 6 µM.
Taken in the same sequence, the figures for `O=C(O)CN1C(=O)/C(=C/c2ccc(OCCc3ccc(Cl)cc3)c(OCc3ccccc3)c2)SC1=S` were 1.6 µM and 0.05 µM.
With `COc1cccc(COc2cc(/C=C3\SC(=S)N(CC(=O)O)C3=O)ccc2OCc2ccccc2)c1`, the IC50 in assay [1] was 7.5 µM; in the assay with Candida albicans, over 100 µM.
For `O=C(O)CN1C(=O)/C(=C/c2ccc(OCc3ccccc3)c(OCc3ccc(F)c(F)c3)c2)SC1=S` the same measures were 4.2 µM and over 100 µM.
Taken in the same sequence, the figures for `CC(C)C(Oc1cc(/C=C2\SC(=S)N(CC(=O)O)C2=O)ccc1OCCc1ccccc1)c1ccccc1` (centres undefined) were 0.7 µM and 0.03 µM.
Taken in the same sequence, the figures for `CC[C@@H](COc1ccc(/C=C2\SC(=S)N(CC(=O)O)C2=O)cc1O[C@H](c1ccccc1)C(F)(F)F)c1ccccc1` were 0.35 µM and 0.02 µM.
With `O=C(O)CN1C(=O)/C(=C/c2ccc(OCCc3ccc(F)cc3)c(OCc3ccccc3)c2)SC1=S`, the half-inhibitory concentration (IC50) in assay [1] came out at 1.2 µM; with Candida albicans, 0.05 µM.
For the molecule `O=C(O)CN1C(=O)/C(=C/c2ccc(OCc3cccc(C(F)(F)F)c3)c(OCc3ccccc3)c2)SC1=S`, half-maximal inhibition in the assay on Candida albicans (IC50) was put at 0.65 µM.
Turning to `O=C(O)CN1C(=O)/C(=C/c2ccc(OCc3ccc(F)cc3)c(OCc3ccc(F)cc3)c2)SC1=S`, the IC50 in assay [1] was found to be 5 µM; in the assay on Candida albicans, 5.2 µM.
For `CS(=O)(=O)c1ccc(COc2cc(/C=C3\SC(=S)N(CC(=O)O)C3=O)ccc2OCc2ccccc2)cc1` the same measures were 20 µM and over 100 µM.
For `CCC(Oc1cc(/C=C2\SC(=S)N(CC(=O)O)C2=O)ccc1OCCc1ccccc1)c1ccccc1` (centres undefined) the same measures were 0.95 µM and 0.02 µM.
For `O=C(O)CN1C(=O)/C(=C/c2ccc(OCCc3ccccc3)c(OC(C(=O)N3CCOCC3)c3ccccc3)c2)SC1=S` (centres undefined) the same measures were 1 µM and 43 µM.
As to `COc1cccc(COc2ccc(/C=C3\SC(=S)N(CC(=O)O)C3=O)cc2OCc2cccc(OC)c2)c1`, the IC50 was 15 µM in assay [1] and over 100 µM in the assay with Candida albicans.
Taken in the same sequence, the figures for `O=C(O)CN1C(=O)/C(=C/c2ccc(OCc3ccccc3)c(OCc3ccccc3)c2)SC1=S` were 2.3 µM and 3 µM.
In the case of `O=C(O)CN1C(=O)/C(=C/c2ccc(OCCc3ccc(OC(F)(F)F)cc3)c(OCc3ccccc3)c2)SC1=S`, the values for the IC50 (in assay [1]; in the assay with Candida albicans) were 1.3 µM and 0.2 µM, respectively.
Turning to `CC[C@H](COc1ccc(/C=C2\SC(=S)N(CC(=O)O)C2=O)cc1O[C@H](c1ccccc1)C(F)(F)F)c1ccccc1`, the IC50 in assay [1] was 0.5 µM; in the assay on Candida albicans it was 0.02 µM.
With `O=C(O)CN1C(=O)/C(=C/c2ccc(OCCc3cc(F)cc(F)c3)c(OCc3ccccc3)c2)SC1=S`, the figures for the IC50 (in assay [1]; in the assay on Candida albicans) were 0.85 µM and 0.11 µM, respectively.
`COc1ccc(COc2ccc(/C=C3\SC(=S)N(CC(=O)O)C3=O)cc2OCc2ccccc2)cc1`: the values for the IC50 (in assay [1]; in the assay with Candida albicans) were 3.4 µM and 3 µM, respectively.
Taken in the same sequence, the figures for `O=C(O)CN1C(=O)/C(=C\c2ccc(OCc3ccccc3)c(OCc3ccc(OC(F)(F)F)cc3)c2)SC1=S` were 2 µM and 0.5 µM.
As to `O=C(O)CN1C(=O)/C(=C/c2ccc(OCc3ccccc3)c(OCc3cccc(Cl)c3)c2)SC1=S`, the IC50 (in assay [1]; in the assay with Candida albicans) was 4 µM in each case.
